Earlier results on one compound are cited in PMC9014651 (Bioorganic Chemistry, 2022).

The structures appear in SMILES notation.

In the data set the test system is coronavirus variants (B.1.1.7 and B.1.351). To be noted: cited from earlier work.

Take `Cc1ccc(NC(=O)c2ccc(CN3CCN(C)CC3)cc2)cc1Nc1nc(-c2cccnc2)cs1` [Masitinib]: the “Effect on tested coronavirus variants in vitro” value is “effective”.
